{"source": "patent US12097210B2", "about": "“Concomitant administration of glucocorticoid receptor modulators and CYP3A inhibitors” (Corcept Therapeutics, Inc., priority 2017, dated 2024)", "key": {"[1]": {"assay": "clinical", "details": "male, human, in vivo", "description": "This study was conducted in accordance with Good Clinical Practice under the guidance of an Institutional Review Board and in accordance with applicable local legal and regulatory requirements.\nKORLYM® was supplied in 300 mg tablets for oral administration. Three or four tablets were administered once daily (OD) to provide either the 900 mg or 1200 mg per day dose.\nItraconazole was supplied • in 100 mg capsules for oral administration. Two capsules were administered once daily (OD) to provide the 200 mg per day dose.\nAll drug administrations were oral and were given after the morning meal.\nThe inclusion criteria required, among other criteria, that the subjects be healthy male subjects between the ages of 18 and 65, weigh more than 110 pounds, and have a body mass index (BMI) of 18 to 32 kg/m^2. The design included a Screening Period of up to 3 weeks (subjects were screened at a time between days −21 to −1 prior to the first treatment period), three 14-day treatment periods, and a Follow-Up (FU) Period of 14 days for safety observation.\nSubjects meeting the inclusion criteria (n=22) were administered drug daily and blood samples were taken on the days indicated below during Periods 1-3 and on day 43 of the follow-up period.\nSubjects presented at the Clinical Research Unit (CRU) after an 8-hour overnight fast, then predose PK samples were taken and other evaluations (predose electrocardiograms (ECGs), plasma cortisol and ACTH, serum chemistry tests) were performed. […] On the specific days indicated above, additional blood draws for determining 24-hour PK profiles were performed.\nPharmacokinetic (PK) parameters measured and computed included AUC (area under the concentration−time curve), AUC0-24 (AUC values from time 0 to 24 hours postdose), Cmax (maximum concentration), and Css (average steady-state concentration, calculated as AUC0-24/24)."}, "[2]": {"assay": "Example 2: safety (adverse events, physical examinations, laboratory tests)", "assay_type": "in vivo, human", "description": "Safety was assessed by spontaneously reported adverse events, physical examinations, and routine clinical laboratory tests. Adverse event data were tabulated. Physical findings and laboratory test results were listed by subject."}, "[3]": {"assay": "Example 1: effect of oral ketoconazole (400 mg OD or 200 mg BID) on plasma pharmacokinetics of a 300 mg single dose of mifepristone, fasted", "assay_type": "in vivo, human", "details": "Keto 200 mg BID vs 400 mg OD", "text": "This study was an open-label study in healthy male subjects.\nHealthy male volunteers between the ages of 18 to 45 years of age with a body mass index (BMI) ranging between 19 and 32 kg/m2 and a weight of at least 60 kg (132 lbs) were enrolled. Subjects had no clinically significant abnormal findings on the physical examination, ECG, blood pressure, heart rate, medical history, or clinical laboratory results during screening. The QTc interval at screening was less than 450 msec.\nIn cohort 1, six subjects received ketoconazole 400 mg OD for 14 days.\nSubjects remained in the clinic on Days 2 and 3 to receive 400 mg OD oral ketoconazole fasted, and for safety evaluation and collection of blood pharmacokinetic (PK) samples. Subjects were discharged from the clinic on Day 4 following administration of 400 mg OD oral ketoconazole fasted, and returned to the clinic the mornings of Days 5 through 13 to receive 400 mg OD oral ketoconazole fasted.\nIn cohort 2, six subjects received ketoconazole 200 mg BID for 14 days. […] All 12 subjects completed the study. […]\nSubjects in both cohorts returned to the study center on Day 15 for safety monitoring, and completion of the Termination Visit procedures, followed by discharge from the study. Safety was assessed by spontaneously reported adverse events, physical examinations, and routine clinical laboratory tests. […]"}, "[4]": {"assay": "Example 3: safety (adverse events, laboratory tests, vital signs, ECGs)", "assay_type": "in vivo, human", "description": "(§1) A single dose of ketoconazole was administered on Day −1."}, "[5]": {"assay": "Example 3: effect of ketoconazole 200 mg twice daily on PK of mifepristone 600 mg once daily and metabolites, with food", "assay_type": "in vivo, human", "description": "as §1\nThe study was a two period study design.\nConcentrations of RU 42633 and RU 42848 were similar on Day 17 and Day 12."}, "[6]": {"assay": "Example 1: safety (adverse events, physical examinations, clinical laboratory tests, ECG)", "assay_type": "in vivo, human", "details": "mifepristone 300 mg single dose with ketoconazole for 14 days", "description": "Subjects in both cohorts returned to the study center on Day 15 for safety monitoring, and completion of the Termination Visit procedures, followed by discharge from the study. Safety was assessed by spontaneously reported adverse events, physical examinations, and routine clinical laboratory tests. To the extent possible, any adverse events deemed study drug-related and that were ongoing at the time of discharge from the study were followed-up to resolution or until a determination is made that the unresolved event was stable."}, "[7]": {"assay": "Example 3: cross-study comparison of exposure with historic study of 1200 mg mifepristone OD", "assay_type": "in vivo, human"}, "[8]": {"details": "mifepristone 600 mg OD Days 1-17, ketoconazole 200 mg BID Days 13-17"}, "[9]": {"details": "Test: Day 17, 600 mg mifepristone OD + 200 mg Ketoconazole BID, Reference: Day 12, 600 mg mifepristone OD, geometric mean ratio"}, "[10]": {"details": "Test: Day 17, 600 mg mifepristone OD + 200 mg Ketoconazole BID, Reference: historic study Day 7, 1200 mg mifepristone OD alone, after 34% fat meal"}}, "data": [{"smiles": "CC#C[C@]1(O)CC[C@H]2[C@@H]3CCC4=CC(=O)CCC4=C3[C@@H](c3ccc(N(C)C)cc3)C[C@@]21C", "note": "[Mifepristone, 11β-(4-dimethylaminophenyl)-17β-hydroxy-17α-(1-propynyl)-estra-4,9-dien-3-one]", "values": [{"measurement": "AUC(0-t)", "setting": "[1]; 900 mg", "result": 59.6, "unit": "µg·h/mL"}, {"measurement": "Cmax, Geometric Means", "setting": "[1]; 900 mg", "result": 3.55, "unit": "µg/mL"}, {"measurement": "AUC(0-24), Geometric Means", "setting": "[1]; 1200 mg", "result": "67,700"}, {"measurement": "Cmax", "setting": "[1]; 1200 mg", "result": 4.36, "unit": "µg/mL"}, {"measurement": "TEAEs considered possibly or probably related to mifepristone administration", "setting": "[2]; four subjects in Cohort 2 (600 mg OD)", "result": "dizziness, nausea, vomiting, dry mouth, and rash"}, {"measurement": "subjects experiencing at least 1 TEAE", "setting": "[2]; twelve subjects, mifepristone 300 or 600 mg OD 8 days, ketoconazole 400 mg Day 8", "result": 50, "unit": "%"}, {"measurement": "Mean Ratio AUCtotal (C2/C1)", "setting": "[3]; geometric mean ratio (AUCinf in text)", "result": 1.05}, {"measurement": "Mean Ratio Cmax (C2/C1)", "setting": "[3]; geometric mean ratio", "result": 1.15}, {"measurement": "discontinuation due to AEs", "setting": "[4]; during the mifepristone-only treatment period (moderate hypertension; moderate bilateral rash)", "result": "Two subjects discontinued due to AEs"}, {"measurement": "subjects with at least one TEAE", "setting": "[4]; during the mifepristone/ketoconazole treatment period", "result": 57.1, "unit": "%"}, {"measurement": "subjects with at least one TEAE", "setting": "[4]; during treatment with mifepristone alone (600 mg OD)", "result": 55.6, "unit": "%"}, {"measurement": "deaths or SAEs", "setting": "[4]; [8]", "result": "No deaths or SAEs were reported"}, {"measurement": "severe TEAEs", "setting": "[4]; [8]", "result": "No severe TEAEs were reported"}, {"measurement": "concentrations on Day 17 compared with Day 12", "setting": "[5]; 600 mg mifepristone daily with 200 mg ketoconazole twice daily vs mifepristone alone", "result": "higher"}, {"measurement": "trough concentrations through the start of ketoconazole administration (Day 13)", "setting": "[5]; FIG. 1, 600 mg mifepristone OD", "result": "increasing day-by-day"}, {"measurement": "difference of time 0 (pre-dose) plasma concentration, Day 17 vs Day 12", "setting": "[5]; FIG. 2, before and after inhibition of CYP3A by ketoconazole", "result": "~500", "unit": "ng/mL"}, {"measurement": "Ratio % Test/Reference, AUC0-24", "setting": "[5]; [9]", "result": 138.01, "unit": "%"}, {"measurement": "Ratio % Test/Reference, Cmax", "setting": "[5]; [9]", "result": 127.59, "unit": "%"}, {"measurement": "subjects experiencing at least one treatment emergent adverse event (TEAE)", "setting": "[6]; 12 subjects", "result": 25, "unit": "%"}, {"measurement": "SAE or AE resulting in discontinuation", "setting": "[6]", "result": "No subject experienced an SAE or an AE that resulted in discontinuation from the study"}, {"measurement": "TEAEs considered by the investigator to be related to the drug", "setting": "[6]", "result": "No TEAE was considered by the investigator to be related to Mifepristone"}, {"measurement": "changes in ECG parameters", "setting": "[6]", "result": "No clinically significant changes in any ECG parameter"}, {"measurement": "changes in laboratory test results", "setting": "[6]", "result": "Minimal changes in laboratory test results"}, {"measurement": "exposures as percent of those observed following the highest labeled dose of mifepristone (1200 mg daily)", "setting": "[7]; 600 mg mifepristone OD + 200 mg ketoconazole BID", "result": "approximately 85%"}, {"measurement": "Ratio % Test/Ref, AUC0-24", "setting": "[7]; [10]", "result": 87.27, "unit": "%"}, {"measurement": "Ratio % Test/Ref, Cmax", "setting": "[7]; [10]", "result": 84.64, "unit": "%"}]}]}
